Experimental data published in patent US10479789B2, “Pyrido[1,2-A]pyrimidone analog, crystal form thereof, intermediate thereof and preparation method therefor” (Chia Tai Tianqing Pharmaceutical Group Co., Ltd., priority 2015, dated 2019).

Assays:
[1] = Stability of crystalline Form IX of Compound 1 in different solvents (XRPD after stirring); type: physicochemical; settings: stirred at 40° C.; for Results (crystalline state by XRPD): 2 days
Procedure: Several samples of crystalline Form IX of Compound 1 in a suitable amount were taken, respectively added to 0.3-0.4 mL of a single solvent or a mixed solvent as shown in the following table, and stirred at 40° C. After stirring for 2 days, the samples were centrifuged. Solid in the samples was collected and its crystalline state was detected by XRPD.

[2] = Solid state stability of crystalline Form IX under high temperature, high humidity and strong light; type: physicochemical
Procedure: About 10 mg of crystalline Form IX of Compound 1 was weighed and placed on a bottom of a glass sample bottle to form a thin layer. For the samples placed under the conditions of 60° C. and room temperature/92.5% RH, the top of the bottles was covered with aluminum foil, and several holes were made in aluminum foil, which is ensure that the samples were fully exposed to the air in the environment; for the samples placed under strong light (5 Klx), the bottles were sealed with a screw cap. Another sample of 15 mg of crystalline Form IX was taken and placed according to the method as described above for detecting the crystalline form of the sample. The samples placed under different conditions were sampled and detected on day 5 and day 10, and the detection results were compared with the initial detection results on day 0.

[3] = High temperature 60° C. (opened), day 5
[4] = High temperature 60° C. (opened), day 5 and day 10
[5] = High temperature 60° C. (opened), day 10
[6] = Light 5KIx (closed), day 5 and day 10
[7] = Room temperature/92.5% RH (opened), day 5
[8] = Room temperature/92.5% RH (opened), day 5 and day 10
[9] = Room temperature/92.5% RH (opened), day 10

Appearance (2 days) ([1]; acetone): suspension
Results (crystalline state by XRPD) ([1]; acetone): crystalline
Appearance (2 days) ([1]; acetone-water (1:2)): suspension
Results (crystalline state by XRPD) ([1]; acetone-water (1:2)): crystalline
Appearance (2 days) ([1]; acetonitrile): suspension
Results (crystalline state by XRPD) ([1]; acetonitrile): crystalline
Appearance (2 days) ([1]; ethanol): suspension
Results (crystalline state by XRPD) ([1]; ethanol): crystalline
Appearance (2 days) ([1]; ethanol-water (3:1)): suspension
Results (crystalline state by XRPD) ([1]; ethanol-water (3:1)): crystalline
Appearance (2 days) ([1]; ethyl acetate): suspension
Results (crystalline state by XRPD) ([1]; ethyl acetate): crystalline
Appearance (2 days) ([1]; isopropanol): suspension
Results (crystalline state by XRPD) ([1]; isopropanol): crystalline
Appearance (2 days) ([1]; isopropanol-water (1:1)): suspension
Results (crystalline state by XRPD) ([1]; isopropanol-water (1:1)): crystalline
Appearance (2 days) ([1]; methanol): suspension
Results (crystalline state by XRPD) ([1]; methanol): crystalline
Appearance (2 days) ([1]; methanol-water (3:1)): suspension
Results (crystalline state by XRPD) ([1]; methanol-water (3:1)): crystalline
Appearance (2 days) ([1]; tetrahydrofuran): suspension
Results (crystalline state by XRPD) ([1]; tetrahydrofuran): crystalline
Content (%) [2, 3]: 100.64%
Total impurities (%) [2, 3]: 0.32%
Appearance [2, 4]: White
Crystalline Form [2, 4]: crystalline
Content (%) [2, 5]: 100.55%
Total impurities (%) [2, 5]: 0.33%
Content (%) ([2]; Light 5KIx (closed), day 5): 100.43%
Total impurities (%) ([2]; Light 5KIx (closed), day 5): 0.31%
Appearance [2, 6]: White
Crystalline Form [2, 6]: crystalline
Content (%) ([2]; Light 5KIx (closed), day 10): 101.10%
Total impurities (%) ([2]; Light 5KIx (closed), day 10): 0.32%
Content (%) [2, 7]: 101.05%
Total impurities (%) [2, 7]: 0.32%
Appearance [2, 8]: White
Crystalline Form [2, 8]: crystalline
Content (%) [2, 9]: 101.16%
Total impurities (%) [2, 9]: 0.32%
Appearance ([2]; day 0 (initial)): White
Content (%) ([2]; day 0 (initial)): 101.02%
Crystalline Form ([2]; day 0 (initial)): crystalline
Total impurities (%) ([2]; day 0 (initial)): 0.32%
SMILES: COc1ncc(-c2ccc3ncc(OCCN(C)C)c(=O)n3c2)cc1NS(=O)(=O)c1ccc(F)cc1Cl [crystalline Form IX of Compound 1]
